Columns and labels:
Format in all cases: cell-based
[1] = system: FKVX; assay: in vitro cytotoxicity evaluation, Non-Small Cell Lung Cancer; settings: Homo sapiens, 48 h, two days, sulforhodamine B
Method: (§1) These assays were carried out at the Developmental Therapeutics Program, Division of Cancer Treatment, National Cancer Institute (Bethesda, Md., USA). The method consists of incubating varying concentrations of the drug with an inoculum of cells for two days.
(§2) It should be noted that the first two parameters (GI50 and TGI) relate to antiproliferation effects while the third one (LC50) indicates true cytotoxicity.

[2] = system: NCI-H460; assay: as above; settings: Homo sapiens, 48 h, NCI-H460, two days, sulforhodamine B
Method: as §1, §2

[3] = system: LXFL-529L; assay: as above; settings: Homo sapiens, 48 h, two days, sulforhodamine B
Method: as §1, §2

[4] = system: NCI-H226; assay: as above; settings: Homo sapiens, 48 h, NCI-H226, two days, sulforhodamine B
Method: as §1, §2

[5] = system: A-549/ATCC; assay: as above; settings: Homo sapiens, A549, 48 h, two days, sulforhodamine B
Method: as §1, §2

[6] = system: NCI=H322M; assay: as above; settings: Homo sapiens, 48 h, two days, sulforhodamine B
Method: as §1, §2

[7] = system: MK20L2; assay: in vitro cytotoxicity evaluation, Colon Cancer; settings: Homo sapiens, 48 h, MK20L2, two days, sulforhodamine B
Method: as §1, §2

[8] = system: DLD-1; assay: in vitro cytotoxicity evaluation, Colon Cancer; settings: Homo sapiens, 48 h, DLD-1, two days, sulforhodamine B
Method: as §1, §2

[9] = system: HCT-15; assay: in vitro cytotoxicity evaluation, Colon Cancer; settings: Homo sapiens, 48 h, HCT-15, two days, sulforhodamine B
Method: as §1, §2

[10] = system: Colo 205; assay: in vitro cytotoxicity evaluation, Colon Cancer; settings: Homo sapiens, 48 h, Colo 205, two days, sulforhodamine B
Method: as §1, §2

[11] = system: KM 12; assay: in vitro cytotoxicity evaluation, Colon Cancer; settings: Homo sapiens, KM12, 48 h, KM 12, two days, sulforhodamine B
Method: as §1, §2

[12] = system: HCT-116; assay: in vitro cytotoxicity evaluation, Colon Cancer; settings: Homo sapiens, 48 h, HCT-116, two days, sulforhodamine B
Method: as §1, §2

[13] = system: HT 29; assay: in vitro cytotoxicity evaluation, Colon Cancer; settings: Homo sapiens, 48 h, HT 29, two days, sulforhodamine B
Method: as §1, §2

[14] = system: SW-620; assay: in vitro cytotoxicity evaluation, Colon Cancer; settings: Homo sapiens, 48 h, SW-620, two days, sulforhodamine B
Method: as §1, §2

[15] = system: SNB-78; assay: in vitro cytotoxicity evaluation, CNS Cancer; settings: Homo sapiens, 48 h, SNB-78, two days, sulforhodamine B
Method: as §1, §2

[16] = system: F498; assay: in vitro cytotoxicity evaluation, CNS Cancer; settings: Homo sapiens, 48 h, F498, two days, sulforhodamine B
Method: as §1, §2

[17] = system: SNB-19; assay: in vitro cytotoxicity evaluation, CNS Cancer; settings: Homo sapiens, 48 h, SNB-19, two days, sulforhodamine B
Method: as §1, §2

[18] = system: SF-295; assay: in vitro cytotoxicity evaluation, CNS Cancer; settings: Homo sapiens, 48 h, SF-295, two days, sulforhodamine B
Method: as §1, §2

[19] = system: SF-539; assay: in vitro cytotoxicity evaluation, CNS Cancer; settings: Homo sapiens, 48 h, SF-539, two days, sulforhodamine B
Method: as §1, §2

[20] = system: SNB-75; assay: in vitro cytotoxicity evaluation, CNS Cancer; settings: Homo sapiens, 48 h, SNB-75, two days, sulforhodamine B
Method: as §1, §2

[21] = system: U251; assay: in vitro cytotoxicity evaluation, CNS Cancer; settings: Homo sapiens, U-251, 48 h, U251, two days, sulforhodamine B
Method: as §1, §2

[22] = system: SF-268; assay: in vitro cytotoxicity evaluation, CNS Cancer; settings: Homo sapiens, 48 h, SF-268, two days, sulforhodamine B
Method: as §1, §2

[23] = read-out: LOG10 G150 (GI50) (converted)
[24] = read-out: Log10 LC50 (converted)
[25] = read-out: Log10 TGI (converted)

COc1c2c(c(OC)c3c(=O)c4ccccc4sc13)CS(=O)(=O)[C@@H]2O[C@H]1C[C@H](N)[C@H](O)[C@H](C)O1 [BCH-255, (1S ) 1-daunosamine-4-11-dimethoxy-5-oxo-5-H-1,3-dihydrothioxantheno [2,3-c] thiophene-2,2-dioxide]
GI50 [1, 23]: 25.7 µM | CC50 [1, 24]: 93.3 µM | IC (total growth inhibition (TGI)) [1, 25]: 49 µM | GI50 [2, 23]: 20.4 µM | LC50 (concentration killing 50% of cells) [2, 24]: 79.4 µM | IC (total growth inhibition (TGI)) [2, 25]: 39.8 µM | GI50 [3, 23]: 17 µM | CC50 [3, 24]: 57.5 µM | IC (total growth inhibition (TGI)) [3, 25]: 31.6 µM | GI50 [4, 23]: 20 µM | CC50 [4, 24]: 83.2 µM | IC (total growth inhibition (TGI)) [4, 25]: 40.7 µM | GI50 [5, 23]: 19.5 µM | CC50 [5, 24]: 69.2 µM | IC (total growth inhibition (TGI)) [5, 25]: 36.3 µM | GI50 [6, 23]: 19.1 µM | CC50 [6, 24]: 100 µM | IC (total growth inhibition (TGI)) ([6]; read-out: Log10 TGI): 43.7 µM | GI50 [7, 23]: 17 µM | CC50 [7, 24]: 57.5 µM | IC (total growth inhibition (TGI)) [7, 25]: 30.9 µM | GI50 [8, 23]: 24.5 µM | LC50 [8, 24]: > 100 µM | IC (total growth inhibition (TGI)) [8, 25]: 67.6 µM | GI50 [9, 23]: 19.1 µM | CC50 [9, 24]: 95.5 µM | IC (total growth inhibition (TGI)) [9, 25]: 42.7 µM | GI50 [10, 23]: 17.8 µM | CC50 [10, 24]: 77.6 µM | IC (total growth inhibition (TGI)) [10, 25]: 37.2 µM | GI50 [11, 23]: 18.2 µM | CC50 [11, 24]: 87.1 µM | IC (total growth inhibition (TGI)) [11, 25]: 39.8 µM | GI50 [12, 23]: 20.4 µM | CC50 [12, 24]: 75.9 µM | IC (total growth inhibition (TGI)) [12, 25]: 39.8 µM | GI50 [13, 23]: 17.8 µM | CC50 [13, 24]: 61.7 µM | IC (total growth inhibition (TGI)) [13, 25]: 33.1 µM | GI50 [14, 23]: 20.4 µM | CC50 [14, 24]: 67.6 µM | IC (total growth inhibition (TGI)) [14, 25]: 37.2 µM | GI50 [15, 23]: 20.4 µM | CC50 [15, 24]: 91.2 µM | IC (total growth inhibition (TGI)) [15, 25]: 42.7 µM | GI50 [16, 23]: 16.6 µM | CC50 [16, 24]: 58.9 µM | IC (total growth inhibition (TGI)) [16, 25]: 31.6 µM | GI50 [17, 23]: 30.9 µM | CC50 [17, 24]: > 100 µM | IC (total growth inhibition (TGI)) ([17]; read-out: Log10 TGI): > 100 µM | GI50 [18, 23]: 16.2 µM | CC50 [18, 24]: 63.1 µM | IC (total growth inhibition (TGI)) [18, 25]: 32.4 µM | GI50 [19, 23]: 17.4 µM | CC50 [19, 24]: 57.5 µM | IC (total growth inhibition (TGI)) [19, 25]: 31.6 µM | GI50 [20, 23]: 15.8 µM | CC50 [20, 24]: 57.5 µM | IC (total growth inhibition (TGI)) [20, 25]: 30.2 µM | GI50 [21, 23]: 17.4 µM | CC50 [21, 24]: 56.2 µM | IC (total growth inhibition (TGI)) [21, 25]: 31.6 µM | GI50 [22, 23]: 20.9 µM | CC50 [22, 24]: > 100 µM | IC (total growth inhibition (TGI)) [22, 25]: 52.5 µM

Source: US5348946A, “Heteroanthracycline antitumor analogs” (Biochem Immunosystems, Inc., priority 1991, dated 1994)
